pIC50: −log10 of the molar value. Where two headings read alike, the source gives them in different places.
What was measured:
[1] = system: gel-filtered platelets; assay: In vitro inhibition of thrombin-induced gel-filtered platelet aggregation; assay type: cell-based; conditions: human gel-filtered platelets, agonist thrombin 50 μL of 1 unit/mL, read-out: Thrmb IC50 (Thrombin-induced aggregation of gel-filtered platelets)
Outline: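 Gel-filtered (Sepharose 2B) human platelets from citrated PRP, 2×10^7 per sample, in Tyrode's buffer pH 7.4 with BSA and added calcium, preincubated with test compound. Aggregation induced by thrombin (50 μL of 1 unit/mL) and followed as light transmission over 3 min. Inhibition is taken relative to control-treated platelets.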

[2] = target: T1, thrombin receptor (PAR-1) (Homo sapiens, UniProt P25116); assay: In vitro thrombin receptor binding assay (CHRF membranes); conditions: tritiated 721-40 radioligand, read-out: Bndg IC50 (Thrombin receptor binding)
T1 construct: CHRF membranes (Jones, Biochim. Biophys. Acta 1992, 1136, 272) are thawed from −70° C; endogenous in cells; host or cells: CHRF cell membranes
T1 sequence (P25116 22-425): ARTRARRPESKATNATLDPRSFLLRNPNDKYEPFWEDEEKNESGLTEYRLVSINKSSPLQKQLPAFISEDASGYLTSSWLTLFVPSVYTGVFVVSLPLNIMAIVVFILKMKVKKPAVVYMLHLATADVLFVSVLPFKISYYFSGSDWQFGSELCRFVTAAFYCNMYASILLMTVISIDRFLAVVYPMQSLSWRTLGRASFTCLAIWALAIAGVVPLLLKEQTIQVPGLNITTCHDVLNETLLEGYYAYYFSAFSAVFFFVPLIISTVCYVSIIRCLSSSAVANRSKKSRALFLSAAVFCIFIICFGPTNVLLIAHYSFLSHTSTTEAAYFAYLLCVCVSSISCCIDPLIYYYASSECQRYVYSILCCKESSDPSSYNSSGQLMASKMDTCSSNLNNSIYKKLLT
Outline: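 CHRF cell membranes incubated 30 min with tritiated peptide agonist 721–40 and compound at 3.7 μg/mL final (0.6% DMSO) in HEPES/MgCl2/BSA buffer. Nonspecific binding defined with unlabeled 721–40; bound radioactivity counted after filtration onto PEI-treated filters.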

Compound | pIC50 ([1]; Platelet) | pIC50 [2] | pIC50 [1]
NCCNC(=O)CNC(=O)[C@H](Cc1cccc(F)c1)NC(=O)Nc1ccc2c(CN3CCCC3)cn(Cc3c(Cl)cccc3Cl)c2c1 [Compound 147] | 5.36 | 6.38 | –
CCN(CC)Cc1cn(Cc2ccc(F)cc2)c2cc(NC(=O)N[C@@H](Cc3ccc(OC)cc3)C(=O)N[C@@H](CCCNC(=N)N)C(=O)NCCCc3ccccc3)ccc12 [Compound 5] | 5.54 | 5.74 | –
NCCC[C@H](NC(=O)[C@H](Cc1ccc(Cl)cc1)NC(=O)Nc1ccc2c(CN3CCCC3)cn(Cc3c(Cl)cccc3Cl)c2c1)C(=O)NCc1ccccc1Cl [Compound 99] | 6.13 | 5.85 | –
Cc1ccccc1Cn1cc(CN2CCCC2)c2ccc(NC(=O)N[C@H](C(=O)N[C@@H](CCCNC(=N)N)C(=O)NCc3ccccc3)c3ccccc3)cc21 [Compound 29] | < 5.00 | 5.08 | –
CN1CCN(C(=O)[C@H](CCCN)NC(=O)[C@H](Cc2ccc(F)c(F)c2)NC(=O)Nc2ccc3c(CN4CCCC4)cn(Cc4c(Cl)cccc4Cl)c3c2)CC1 [Compound 114] | 5.62 | 6.59 | –
Cc1ccccc1Cn1cc(CN2CCC(N(C)C)C2)c2ccc(NC(=O)N[C@H](Cc3ccc(F)c(F)c3)C(=O)N[C@@H](CCCN=C(N)N)C(=O)NCc3ccccc3)cc21 (stereo partly drawn) [Compound 90] | < 5.00 | 4.80 | –
NCC[C@H](NC(=O)[C@H](CC1CCCCC1)NC(=O)Nc1ccc2c(CN3CCCC3)cn(Cc3c(Cl)cccc3Cl)c2c1)C(=O)NCc1ccccc1 [Compound 155] | 4.96 | 4.87 | –
C=CCOC(=O)[C@H](CCCN)NC(=O)[C@H](Cc1ccc(F)c(F)c1)NC(=O)Nc1ccc2c(CN3CCCC3)cn(Cc3c(Cl)cccc3Cl)c2c1 [Compound 93] | 6.13 | 6.30 | –
N=C(N)NCCC[C@H](NC(=O)[C@H](Cc1ccc(F)cc1)NC(=O)Nc1ccc2c(CN3CCCC3)cn(Cc3ccc(F)cc3)c2c1)C(=O)NCc1ccccc1 [Compound 26] | 6.26 | 5.37 | –
COCC[C@H](NC(=O)[C@H](Cc1ccc(F)c(F)c1)NC(=O)Nc1ccc2c(CN3CCCC3)cn(Cc3c(Cl)cccc3Cl)c2c1)C(=O)NCCN [Compound 156] | 6.22 | 7.40 | –
COc1ccc(C[C@H](NC(=O)Nc2ccc3c(CN4CCCC4)cn(Cc4ccc(OC(F)(F)F)cc4)c3c2)C(=O)N[C@@H](CCCNC(=N)N)C(=O)NCC2CCCCC2)cc1 [Compound 11] | – | 5.60 | 4.70
COc1ccc(C[C@H](NC(=O)Nc2ccc3c(CN4CCCC4)cn(Cc4ccc(C)cc4)c3c2)C(=O)N[C@@H](CCCN=C(N)N)C(=O)NCc2ccccc2)cc1 [Compound 2] | 5.11 | 4.47 | –
NC(=O)CC[C@H](NC(=O)[C@H](Cc1ccc(F)c(F)c1)NC(=O)Nc1ccc2c(CN3CCCC3)cn(Cc3c(Cl)cccc3Cl)c2c1)C(=O)NCc1ccccc1 [Compound 103] | 6.27 | 5.92 | –
COc1ccc(C[C@H](NC(=O)Nc2ccc3c(CN4CCCC4)cn(Cc4c(Cl)cccc4Cl)c3c2)C(=O)N[C@@H](CCCNC(=N)N)C(=O)NCc2ccccc2)cc1 [Compound 14] | 6.31 | 5.85 | –
CN(C)CCNC(=O)[C@H](CCCN)NC(=O)[C@H](Cc1ccc(F)c(F)c1)NC(=O)Nc1ccc2c(CN3CCCC3)cn(Cc3c(Cl)cccc3Cl)c2c1 [Compound 126] | 6.34 | 5.82 | –
CCOc1ccc(C[C@H](NC(=O)Nc2ccc3c(CN4CCCC4)cn(Cc4cccc(C)c4)c3c2)C(=O)N[C@@H](CCCNC(=N)N)C(=O)NCc2ccccc2)cc1 [Compound 42] | 4.61 | 5.70 | –
O=C(Nc1ccc2c(CN3CCCC3)cn(Cc3c(Cl)cccc3Cl)c2c1)N[C@@H](Cc1ccc(F)c(F)c1)C(=O)N[C@@H](Cc1ccncc1)C(=O)NCc1ccccc1 [Compound 105] | 6.19 | 5.12 | –

Compound | pIC50 ([1]; Platelet) | pIC50 [2] | pIC50 [1]
NC(N)=NCCC[C@H](NC(=O)[C@H](Cc1ccc(I)cc1)NC(=O)Nc1ccc2c(CN3CCCCC3)cn(Cc3c(Cl)cccc3Cl)c2c1)C(=O)NCc1ccccc1 [Compound 85] | 5.32 | 5.80 | –
CN(C)CCC[C@H](NC(=O)[C@H](Cc1ccc(F)c(F)c1)NC(=O)Nc1ccc2c(CN3CCCC3)cn(Cc3c(Cl)cccc3Cl)c2c1)C(=O)NCc1ccccc1 [Compound 100] | 6.22 | 5.89 | –
NCC[C@H](NC(=O)[C@H](Cc1ccc(F)c(F)c1)NC(=O)Nc1ccc2c(c1)c(CN1CCCC1)cn2Cc1ccc(F)cc1)C(=O)NCc1ccccc1 [Compound 164] | 4.87 | 4.93 | –
NCCCC[C@H](NC(=O)[C@H](Cc1ccc(F)c(F)c1)NC(=O)Nc1ccc2c(CN3CCCC3)cn(Cc3c(Cl)cccc3Cl)c2c1)C(=O)NCc1ccccc1 [Compound 70] | 6.51 | 6.49 | –
O=C(Nc1ccc2c(CN3CCCC3)cn(Cc3c(Cl)cccc3Cl)c2c1)N[C@@H](Cc1ccc(F)c(F)c1)C(=O)N[C@@H](Cc1c[nH]cn1)C(=O)NCc1ccccc1 [Compound 72] | 6.34 | 5.89 | –
N=C(N)NCCC[C@H](NC(=O)[C@H](Cc1ccc(F)c(F)c1)NC(=O)Nc1ccc2c(CN3CCCC3)cn(Cc3c(Cl)cccc3Cl)c2c1)C(=O)NCCCCCN [Compound 81] | 6.39 | 7.15 | –
N=C(N)NCCC[C@H](NC(=O)[C@@H](NC(=O)Nc1ccc2c(CN3CCCC3)cn(Cc3c(Cl)cccc3Cl)c2c1)C(c1ccccc1)c1ccccc1)C(=O)NCc1ccccc1 [Compound 56] | 5.42 | 4.94 | –
NCCNC(=O)[C@H](Cc1c[nH]cn1)NC(=O)[C@H](Cc1ccc(Cl)cc1)NC(=O)Nc1ccc2c(CN3CCCC3)cn(Cc3c(Cl)cccc3Cl)c2c1 [Compound 134] | 6.02 | 5.92 | –
COc1ccc(C[C@H](NC(=O)Nc2ccc3c(CN4CCOCC4)cn(Cc4ccc(F)cc4)c3c2)C(=O)N[C@@H](CCCN=C(N)N)C(=O)NCc2ccccc2)cc1 [Compound 40] | < 5.00 | 5.41 | –
Cc1ccccc1Cn1cc(CN2CCCC2)c2cccc(NC(=O)N[C@@H](Cc3ccc(F)c(F)c3)C(=O)N[C@@H](CCN)C(=O)NCc3ccccc3)c21 [Compound 168] | 5.08 | 4.19 | –
N=C(N)NCCC[C@H](NC(=O)[C@@H]1CCCN1C(=O)Nc1ccc2c(CN3CCCC3)cn(Cc3c(Cl)cccc3Cl)c2c1)C(=O)NCc1ccccc1 [Compound 107] | 5.74 | 5.10 | –
NCCNC(=O)[C@H](Cc1cscn1)NC(=O)[C@H](Cc1ccc(Cl)cc1)NC(=O)Nc1ccc2c(CN3CCCC3)cn(Cc3c(Cl)cccc3Cl)c2c1 [Compound 137] | 6.03 | 6.09 | –
N=C(N)NCCC[C@H](NC(=O)[C@H](Cc1ccncc1)NC(=O)Nc1ccc2c(CN3CCCC3)cn(Cc3ccc(F)cc3)c2c1)C(=O)NCc1ccccc1 [Compound 24] | 4.46 | 5.32 | –
NCCC[C@H](NC(=O)[C@H](Cc1ccc(F)c(F)c1)NC(=O)Nc1ccc2c(CN3CCCC3)cn(Cc3c(Cl)cccc3Cl)c2c1)C(=O)N1CCCCC1 [Compound 115] | 5.57 | 6.43 | –
Cc1ccccc1Cn1cc(CN2CCCC2)c2ccc(NC(=O)N[C@@H](Cc3cccnc3)C(=O)N[C@@H](CCCNC(=N)N)C(=O)NCc3ccccc3)cc21 [Compound 31] | < 5.00 | 5.08 | –
N=C(N)NCCC[C@H](NC(=O)[C@@H]1Cc2ccccc2CN1C(=O)Nc1ccc2c(CN3CCCC3)cn(Cc3ccc(F)cc3)c2c1)C(=O)NCc1ccccc1 [Compound 30] | < 5.00 | 5.05 | –
